{
  "source": "patent US20030157088A1",
  "about": "“Compositions containing enzymes stabilized with inhibitors having certain binding properties and methods for using such compositions in personal care” (The Proctor & Gamble Company, priority 2001, published 2003)",
  "data": [
    {"tested_on": "skin", "details": "in vivo", "values": [
      {"compound": "CCCCCCCCCCO[C@@H]1O[C@H](CO)[C@@H](O)[C@H](O)[C@H]1O", "note": "[Decyl glucoside, decyl glucoside]", "irritation of the skin": "not increase irritation of the skin"}
    ]},
    {"biological_target": "subtilisin", "type": "biochemical", "details": "approximate values; Ki=[E]*[I]/[EI]; read-out: inhibition constant (Ki)", "from_the_text": "Typically a safe and effective amount will range from 0.00005% to 5%, preferably from 0.005% to 2%, more preferably from 0.025% to 1%. Ki values reported herein are approximate values and may be measured, e.g. using the method set forth in “Kinetcs of Subtilisin and Thiolsubtilisin“, Philipp, M. and Bender, M. L., Molecular & Cellular Biochemistry, vol. 51, pages 5-32 (1983). Another suitable method is set forth in “Protease Stabilization by Carboxylic Acid Salts: Relative Efficencies and Mechanisms,” Crossin, Michael C., J.A.O.C.S. vol. 66, no. 7, pages 1010-1014 (July 1989). […] The inhibition constant (Ki) is defined as the concentration of inhibitor required to inhibit an enzyme's activity by 50%, and may be represented as Ki=[E]*[I]/[EI], wherein E is enzyme, I is inhibitor, and EI is enzyme-inhibitor complex.", "units": {"Ki": "µM"}, "values": [
      {"compound": "OB(O)O", "note": "[boric acid]", "Ki": "> 1000"},
      {"compound": "CCCCB(O)O", "note": "[butylboronic acid]", "Ki": 7200},
      {"compound": "CC(=O)N[C@@H](CC(C)C)C(=O)N[C@@H](CC(C)C)C(=O)N[C@H](C=O)CCCNC(=N)N", "note": "[leupeptide]", "Ki": 230},
      {"compound": "OB(O)c1ccccc1", "note": "[phenylboronic acid]", "Ki": 160},
      {"compound": "Streptomyces subtilisin inhibitor [Streptomyces subtilisin inhibitor (SSI)]", "Ki": "< 0.001"}
    ]}
  ]
}
